Laboratory results from publication PMC7363133, “The structure and reactivity of the HoxEFU complex from the cyanobacterium Synechocystis sp. PCC 6803” (The Journal of Biological Chemistry, 2020).

molecular target: T1, HoxEFU (Synechocystis sp. PCC 6803, UniProt P74024); test: intrinsic protein fluorescence/FRET titration, equilibrium binding isotherm; details: Hill fit (cooperative); excitation 285 nm, emission 348 nm
T1 construct: gene hoxF; heterotrimeric diaphorase subcomplex without HoxYH; Strep-II tag with Ser-Ala linker at C-terminus of HoxF; codon-optimised, pET21, E. coli BL21 deltaiscR; anaerobic purification; with Bidirectional [NiFe] hydrogenase diaphorase subunit HoxE; Bidirectional [NiFe] hydrogenase diaphorase subunit HoxU
T1 sequence (P74024 1-533): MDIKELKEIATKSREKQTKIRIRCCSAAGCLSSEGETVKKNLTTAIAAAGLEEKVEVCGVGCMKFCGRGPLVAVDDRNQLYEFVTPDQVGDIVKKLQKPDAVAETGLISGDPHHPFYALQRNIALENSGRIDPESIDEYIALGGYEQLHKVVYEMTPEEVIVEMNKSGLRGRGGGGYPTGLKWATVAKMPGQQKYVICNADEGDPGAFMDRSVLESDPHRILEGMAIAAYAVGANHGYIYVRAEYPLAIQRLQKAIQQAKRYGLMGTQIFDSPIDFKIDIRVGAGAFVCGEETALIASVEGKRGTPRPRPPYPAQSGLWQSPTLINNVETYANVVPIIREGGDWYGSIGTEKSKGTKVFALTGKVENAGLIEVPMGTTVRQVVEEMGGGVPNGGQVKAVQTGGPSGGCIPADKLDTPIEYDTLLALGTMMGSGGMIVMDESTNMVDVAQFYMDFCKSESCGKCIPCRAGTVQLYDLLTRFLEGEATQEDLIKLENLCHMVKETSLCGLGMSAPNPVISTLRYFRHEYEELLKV
T1 sequence (P74025 1-173 partner): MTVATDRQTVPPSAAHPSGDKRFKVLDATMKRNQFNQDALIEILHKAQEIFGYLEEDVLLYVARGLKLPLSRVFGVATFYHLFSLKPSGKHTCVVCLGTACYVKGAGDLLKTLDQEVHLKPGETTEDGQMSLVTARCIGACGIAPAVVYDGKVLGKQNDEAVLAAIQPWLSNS
T1 sequence (P74022 1-238 partner): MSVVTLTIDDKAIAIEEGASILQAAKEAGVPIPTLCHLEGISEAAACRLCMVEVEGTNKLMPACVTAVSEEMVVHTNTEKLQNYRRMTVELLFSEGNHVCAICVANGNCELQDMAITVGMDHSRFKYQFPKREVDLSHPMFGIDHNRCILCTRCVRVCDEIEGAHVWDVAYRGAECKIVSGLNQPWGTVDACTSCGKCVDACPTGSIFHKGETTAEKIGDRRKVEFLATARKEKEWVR

Kd | SMILES
32 µM | NC(=O)C1=CN([C@@H]2O[C@H](COP(=O)(O)OP(=O)(O)OC[C@H]3O[C@@H](n4cnc5c(N)ncnc54)[C@H](O)[C@@H]3O)[C@@H](O)[C@H]2O)C=CC1 [NADH]
1950 ± 270 µM | NC(=O)c1ccc[n+]([C@@H]2O[C@H](COP(=O)(O)OP(=O)(O)OC[C@H]3O[C@@H](n4cnc5c(N)ncnc54)[C@H](OP(=O)(O)O)[C@@H]3O)[C@@H](O)[C@H]2O)c1 [NADP^+]
1350 ± 70 µM | NC(=O)c1ccc[n+]([C@@H]2O[C@H](COP(=O)(O)OP(=O)(O)OC[C@H]3O[C@@H](n4cnc5c(N)ncnc54)[C@H](O)[C@@H]3O)[C@@H](O)[C@H]2O)c1 [NAD^+]
